Experimental data taken from patent US4501755A, “Isoflavones useful as anti-inflammatory agents” (Pennwalt Corporation, priority 1982, dated 1985).
Counter-ions that a name gives are not always drawn.

Tested on: carrageenan-induced paw edemas of test rats
Experiment: carrageenan-induced paw edema (anti-inflammatory activity)
Format: in vivo, Male, Sprague-Dawley rats
Conditions: 50 mg/kg p.o.; carrageenan injected 2 hours after dosing, paw volume measured 3 hours later; control group paw volume as 100% edema
Procedure: These properties were determined by carrageenan-induced paw edemas of test rats. Male, Sprague-Dawley rats (Blue Spruce Farm) were ordered at 124-140 g, housed for one week, and allowed food and water ad libitum. At the time of the experiments, only rats weighing 160-200 g were used.
All compounds were dissolved or suspended in a 0.5% water solution of Methocel and orally administered to groups of six rats each. Control rats received Methocel only. Two hours later, paw edema was induced by subcutaneous injection into the plantar surface of the right hind paw of 0.1 ml of a 1.0% homogenized suspension of carrageenan.
Immediately, the volume of the paw was measured by immersing it in mercury to above the lateral mateolus. The mercury in a glass cylinder 22 mm in diameter and 60 mm deep was connected at the bottom of the cylinder by a column of water to a Statham transducer (model P23BB), range 0-5 cm of mercury pressure. The volume was recorded electronically on a Beckman recorder, R511. Three hours later, the inflamed paw volume was measured again, and the change in volume was recorded for each group. The percent inhibition of edema was calculated using the control group paw volume as 100% edema, i.e.,

Structure (SMILES)	% Inhibition of Edema [%]
CC(C)NCC(O)COc1ccc2c(=O)c(-c3ccccc3)coc2c1 (stereo not drawn) [Example 1, 7-(2-hydroxy-3-isopropylaminopropoxy)-3-phenylchromone hydrochloride]	45
CC(C)NCC(O)COc1ccc2c(=O)c(-c3ccccc3)c(C(F)(F)F)oc2c1 (stereo not drawn) [Example 4, 7-(2-hydroxy-3-isopropylaminopropoxy)-2-trifluoromethylisoflavone hydrochloride]	31
CC(C)NCC(O)COc1ccc2c(=O)c(-c3ccccc3)c(C(C)C)oc2c1 (stereo not drawn) [Example 5, 7-(2-hydroxy-3-isopropylaminopropoxy)-2-isopropylisoflavone maleate]	29
